Experimental data published in ChEMBL document CHEMBL5696442, “Discovery of type II inhibitors of TGFβ-activated kinase 1 (TAK1) and mitogen-activated protein kinase kinase kinase kinase 2 (MAP4K2)” (J Med Chem, 2015).

Key:
[1] = molecular target: Cyclin-dependent kinase 9 (Homo sapiens) (UniProt P50750); assay: Inhibition of CDK9 Lys2 labeling site in human Huh-7 cell lysate at 1 uM by KiNativ Profiling analysis relative to control; type: subcellular
[2] = molecular target: T1, Serine/threonine-protein kinase D3 (Homo sapiens) (UniProt O94806); assay: Inhibition of PKD3 Lys2 labeling site in human Huh-7 cell lysate at 1 uM by KiNativ Profiling analysis relative to control; type: subcellular
T1 sequence (whole entry): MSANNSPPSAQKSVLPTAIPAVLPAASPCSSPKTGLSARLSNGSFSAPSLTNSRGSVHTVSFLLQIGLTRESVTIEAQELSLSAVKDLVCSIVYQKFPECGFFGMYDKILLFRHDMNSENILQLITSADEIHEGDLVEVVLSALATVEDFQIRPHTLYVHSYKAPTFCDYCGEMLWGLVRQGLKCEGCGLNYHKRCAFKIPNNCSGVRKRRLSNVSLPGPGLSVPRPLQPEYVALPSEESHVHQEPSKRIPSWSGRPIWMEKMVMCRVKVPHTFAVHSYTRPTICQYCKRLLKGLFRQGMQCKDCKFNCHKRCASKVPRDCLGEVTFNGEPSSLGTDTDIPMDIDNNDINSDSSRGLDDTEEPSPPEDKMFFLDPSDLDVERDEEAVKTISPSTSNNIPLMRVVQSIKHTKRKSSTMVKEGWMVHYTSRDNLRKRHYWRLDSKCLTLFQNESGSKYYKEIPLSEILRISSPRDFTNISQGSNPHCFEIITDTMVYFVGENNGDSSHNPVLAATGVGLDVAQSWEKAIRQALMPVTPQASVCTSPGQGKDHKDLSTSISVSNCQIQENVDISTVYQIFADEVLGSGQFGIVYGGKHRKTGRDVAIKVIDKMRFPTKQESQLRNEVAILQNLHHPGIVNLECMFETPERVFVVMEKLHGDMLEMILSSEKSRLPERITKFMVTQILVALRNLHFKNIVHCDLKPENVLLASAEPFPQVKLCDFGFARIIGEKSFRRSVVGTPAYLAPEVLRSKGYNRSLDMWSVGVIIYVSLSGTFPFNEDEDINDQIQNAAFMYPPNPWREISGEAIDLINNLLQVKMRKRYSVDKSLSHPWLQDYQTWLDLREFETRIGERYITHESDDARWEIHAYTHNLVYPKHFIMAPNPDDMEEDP

[3] = molecular target: T2, Mitogen-activated protein kinase 13 (Homo sapiens) (UniProt O15264); assay: Inhibition of p38delta Lys2 labeling site in human Huh-7 cells at 1 uM by KiNativ Profiling analysis relative to control; type: cell-based
T2 sequence (whole entry): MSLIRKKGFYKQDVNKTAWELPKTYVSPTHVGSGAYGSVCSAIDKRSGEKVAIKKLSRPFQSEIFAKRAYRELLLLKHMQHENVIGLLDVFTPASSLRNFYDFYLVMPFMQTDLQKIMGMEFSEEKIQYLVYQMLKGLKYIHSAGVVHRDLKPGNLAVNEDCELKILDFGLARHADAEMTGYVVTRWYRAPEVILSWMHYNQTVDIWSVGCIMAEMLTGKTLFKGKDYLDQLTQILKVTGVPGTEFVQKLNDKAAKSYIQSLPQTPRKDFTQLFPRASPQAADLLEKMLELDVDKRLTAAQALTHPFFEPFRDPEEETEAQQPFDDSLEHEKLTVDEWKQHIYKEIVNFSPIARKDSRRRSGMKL

[4] = molecular target: High affinity nerve growth factor receptor (Homo sapiens) (UniProt P04629); assay: Inhibition of TRKA (unknown origin) at 1 uM by Ambit Kinomescan binding assay relative to control
[5] = molecular target: Serine/threonine-protein kinase MRCK beta (Homo sapiens) (UniProt Q9Y5S2); assay: Inhibition of MRCKb in human A-375 cells at 5 uM by KiNativ Profiling analysis relative to control; type: cell-based
[6] = molecular target: Receptor-type tyrosine-protein kinase FLT3 (Homo sapiens) (UniProt P36888); assay: Inhibition of FLT3 (unknown origin) at 1 uM by Ambit Kinomescan binding assay relative to control; values are per cent of control
[7] = molecular target: Serine/threonine-protein kinase 38-like (Homo sapiens) (UniProt Q9Y2H1); assay: Inhibition of NDR2 ACT labeling site in human A-375 cells at 0.5 uM by KiNativ Profiling analysis relative to control; type: cell-based
[8] = molecular target: T3, Serine/threonine-protein kinase LATS1 (Homo sapiens) (UniProt O95835); assay: Inhibition of LATS1 Lys2 labeling site in human A-375 cells at 0.05 uM by KiNativ Profiling analysis relative to control; type: cell-based
T3 sequence (whole entry): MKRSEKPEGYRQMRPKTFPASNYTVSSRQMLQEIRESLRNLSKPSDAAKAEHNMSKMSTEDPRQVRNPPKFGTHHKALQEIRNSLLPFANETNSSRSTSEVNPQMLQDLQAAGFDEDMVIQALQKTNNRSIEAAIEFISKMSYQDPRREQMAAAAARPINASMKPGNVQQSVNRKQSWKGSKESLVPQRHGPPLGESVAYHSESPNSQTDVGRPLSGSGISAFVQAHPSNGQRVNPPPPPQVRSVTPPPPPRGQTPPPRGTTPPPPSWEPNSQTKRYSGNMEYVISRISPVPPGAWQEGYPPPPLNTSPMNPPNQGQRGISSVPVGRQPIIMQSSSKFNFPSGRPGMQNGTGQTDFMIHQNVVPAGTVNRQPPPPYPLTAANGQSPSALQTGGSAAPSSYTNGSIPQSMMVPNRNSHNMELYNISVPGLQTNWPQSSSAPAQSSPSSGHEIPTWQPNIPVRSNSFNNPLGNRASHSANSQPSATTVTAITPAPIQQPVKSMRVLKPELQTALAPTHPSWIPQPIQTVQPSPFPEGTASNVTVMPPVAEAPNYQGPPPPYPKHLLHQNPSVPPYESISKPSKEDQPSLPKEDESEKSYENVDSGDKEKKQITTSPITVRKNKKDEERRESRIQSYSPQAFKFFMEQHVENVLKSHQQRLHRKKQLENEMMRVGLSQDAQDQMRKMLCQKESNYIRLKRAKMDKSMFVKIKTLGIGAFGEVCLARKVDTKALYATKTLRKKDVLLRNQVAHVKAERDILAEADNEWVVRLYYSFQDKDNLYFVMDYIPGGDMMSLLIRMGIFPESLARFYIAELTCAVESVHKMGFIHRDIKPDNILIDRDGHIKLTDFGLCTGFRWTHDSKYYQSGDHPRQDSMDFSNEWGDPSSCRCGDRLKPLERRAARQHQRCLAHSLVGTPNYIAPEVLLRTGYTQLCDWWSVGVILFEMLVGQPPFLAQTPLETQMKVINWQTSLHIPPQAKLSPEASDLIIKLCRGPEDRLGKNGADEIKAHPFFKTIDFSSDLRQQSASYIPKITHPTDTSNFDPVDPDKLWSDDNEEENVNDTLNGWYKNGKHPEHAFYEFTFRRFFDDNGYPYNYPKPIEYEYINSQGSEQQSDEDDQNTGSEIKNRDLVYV

[9] = molecular target: Serine/threonine-protein kinase N2 (Homo sapiens) (UniProt Q16513); assay: Inhibition of PKN2 Lys2 labeling site in human A-375 cells at 0.05 uM by KiNativ Profiling analysis relative to control; type: cell-based
Sequence of Serine/threonine-protein kinase N2 (Homo sapiens) (Q16513 whole entry, looked up): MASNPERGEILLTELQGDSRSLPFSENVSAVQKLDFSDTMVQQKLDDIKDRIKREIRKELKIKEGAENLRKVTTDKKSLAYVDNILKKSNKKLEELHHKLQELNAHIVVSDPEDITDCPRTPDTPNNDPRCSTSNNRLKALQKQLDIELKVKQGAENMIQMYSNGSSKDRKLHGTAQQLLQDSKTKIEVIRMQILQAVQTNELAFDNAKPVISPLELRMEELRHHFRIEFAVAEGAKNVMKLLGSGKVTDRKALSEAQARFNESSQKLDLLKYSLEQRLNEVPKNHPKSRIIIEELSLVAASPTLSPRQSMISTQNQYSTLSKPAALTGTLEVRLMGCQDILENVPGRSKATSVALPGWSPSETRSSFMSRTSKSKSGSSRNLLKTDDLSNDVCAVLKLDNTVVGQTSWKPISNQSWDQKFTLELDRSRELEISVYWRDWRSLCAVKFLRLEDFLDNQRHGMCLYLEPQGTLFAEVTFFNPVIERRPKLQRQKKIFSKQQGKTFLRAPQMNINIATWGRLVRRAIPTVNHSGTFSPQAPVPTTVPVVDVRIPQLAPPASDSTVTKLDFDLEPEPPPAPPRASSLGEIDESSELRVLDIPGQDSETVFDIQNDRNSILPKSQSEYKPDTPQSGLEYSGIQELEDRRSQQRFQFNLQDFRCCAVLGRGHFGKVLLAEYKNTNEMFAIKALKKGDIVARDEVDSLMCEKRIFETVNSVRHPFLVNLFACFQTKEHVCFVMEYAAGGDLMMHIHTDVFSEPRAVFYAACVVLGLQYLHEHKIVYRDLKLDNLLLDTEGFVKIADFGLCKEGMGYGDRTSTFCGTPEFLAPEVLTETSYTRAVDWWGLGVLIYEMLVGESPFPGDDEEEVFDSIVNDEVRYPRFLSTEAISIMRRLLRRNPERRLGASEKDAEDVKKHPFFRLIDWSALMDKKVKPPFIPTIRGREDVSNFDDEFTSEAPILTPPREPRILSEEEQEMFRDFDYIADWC

Sequence of Receptor-type tyrosine-protein kinase FLT3 (Homo sapiens) (P36888 whole entry): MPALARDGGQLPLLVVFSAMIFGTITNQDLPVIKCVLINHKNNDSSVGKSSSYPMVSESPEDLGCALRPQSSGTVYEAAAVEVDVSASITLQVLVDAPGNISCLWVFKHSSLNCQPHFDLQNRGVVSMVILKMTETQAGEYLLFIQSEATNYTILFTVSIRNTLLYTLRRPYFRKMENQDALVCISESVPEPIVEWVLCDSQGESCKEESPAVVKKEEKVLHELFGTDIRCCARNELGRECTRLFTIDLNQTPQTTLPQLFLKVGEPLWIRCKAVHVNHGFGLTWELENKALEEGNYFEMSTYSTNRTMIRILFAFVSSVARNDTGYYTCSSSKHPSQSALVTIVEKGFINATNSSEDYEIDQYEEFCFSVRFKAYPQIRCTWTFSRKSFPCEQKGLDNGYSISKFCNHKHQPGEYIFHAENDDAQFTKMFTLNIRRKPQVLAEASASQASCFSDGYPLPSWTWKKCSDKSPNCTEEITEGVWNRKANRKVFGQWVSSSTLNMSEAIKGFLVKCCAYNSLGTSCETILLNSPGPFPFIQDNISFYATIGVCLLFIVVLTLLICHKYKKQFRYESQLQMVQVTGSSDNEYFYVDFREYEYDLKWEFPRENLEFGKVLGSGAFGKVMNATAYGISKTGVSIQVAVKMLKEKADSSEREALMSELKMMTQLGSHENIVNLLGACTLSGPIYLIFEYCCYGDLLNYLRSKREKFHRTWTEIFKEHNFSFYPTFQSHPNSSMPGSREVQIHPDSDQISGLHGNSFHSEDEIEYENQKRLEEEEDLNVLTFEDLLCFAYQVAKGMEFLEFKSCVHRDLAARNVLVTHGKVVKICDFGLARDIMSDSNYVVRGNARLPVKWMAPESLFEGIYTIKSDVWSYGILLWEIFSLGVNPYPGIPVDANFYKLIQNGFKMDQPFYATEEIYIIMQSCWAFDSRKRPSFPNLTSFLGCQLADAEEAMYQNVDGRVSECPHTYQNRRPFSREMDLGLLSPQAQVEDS
Sequence of Serine/threonine-protein kinase MRCK beta (Homo sapiens) (Q9Y5S2 whole entry): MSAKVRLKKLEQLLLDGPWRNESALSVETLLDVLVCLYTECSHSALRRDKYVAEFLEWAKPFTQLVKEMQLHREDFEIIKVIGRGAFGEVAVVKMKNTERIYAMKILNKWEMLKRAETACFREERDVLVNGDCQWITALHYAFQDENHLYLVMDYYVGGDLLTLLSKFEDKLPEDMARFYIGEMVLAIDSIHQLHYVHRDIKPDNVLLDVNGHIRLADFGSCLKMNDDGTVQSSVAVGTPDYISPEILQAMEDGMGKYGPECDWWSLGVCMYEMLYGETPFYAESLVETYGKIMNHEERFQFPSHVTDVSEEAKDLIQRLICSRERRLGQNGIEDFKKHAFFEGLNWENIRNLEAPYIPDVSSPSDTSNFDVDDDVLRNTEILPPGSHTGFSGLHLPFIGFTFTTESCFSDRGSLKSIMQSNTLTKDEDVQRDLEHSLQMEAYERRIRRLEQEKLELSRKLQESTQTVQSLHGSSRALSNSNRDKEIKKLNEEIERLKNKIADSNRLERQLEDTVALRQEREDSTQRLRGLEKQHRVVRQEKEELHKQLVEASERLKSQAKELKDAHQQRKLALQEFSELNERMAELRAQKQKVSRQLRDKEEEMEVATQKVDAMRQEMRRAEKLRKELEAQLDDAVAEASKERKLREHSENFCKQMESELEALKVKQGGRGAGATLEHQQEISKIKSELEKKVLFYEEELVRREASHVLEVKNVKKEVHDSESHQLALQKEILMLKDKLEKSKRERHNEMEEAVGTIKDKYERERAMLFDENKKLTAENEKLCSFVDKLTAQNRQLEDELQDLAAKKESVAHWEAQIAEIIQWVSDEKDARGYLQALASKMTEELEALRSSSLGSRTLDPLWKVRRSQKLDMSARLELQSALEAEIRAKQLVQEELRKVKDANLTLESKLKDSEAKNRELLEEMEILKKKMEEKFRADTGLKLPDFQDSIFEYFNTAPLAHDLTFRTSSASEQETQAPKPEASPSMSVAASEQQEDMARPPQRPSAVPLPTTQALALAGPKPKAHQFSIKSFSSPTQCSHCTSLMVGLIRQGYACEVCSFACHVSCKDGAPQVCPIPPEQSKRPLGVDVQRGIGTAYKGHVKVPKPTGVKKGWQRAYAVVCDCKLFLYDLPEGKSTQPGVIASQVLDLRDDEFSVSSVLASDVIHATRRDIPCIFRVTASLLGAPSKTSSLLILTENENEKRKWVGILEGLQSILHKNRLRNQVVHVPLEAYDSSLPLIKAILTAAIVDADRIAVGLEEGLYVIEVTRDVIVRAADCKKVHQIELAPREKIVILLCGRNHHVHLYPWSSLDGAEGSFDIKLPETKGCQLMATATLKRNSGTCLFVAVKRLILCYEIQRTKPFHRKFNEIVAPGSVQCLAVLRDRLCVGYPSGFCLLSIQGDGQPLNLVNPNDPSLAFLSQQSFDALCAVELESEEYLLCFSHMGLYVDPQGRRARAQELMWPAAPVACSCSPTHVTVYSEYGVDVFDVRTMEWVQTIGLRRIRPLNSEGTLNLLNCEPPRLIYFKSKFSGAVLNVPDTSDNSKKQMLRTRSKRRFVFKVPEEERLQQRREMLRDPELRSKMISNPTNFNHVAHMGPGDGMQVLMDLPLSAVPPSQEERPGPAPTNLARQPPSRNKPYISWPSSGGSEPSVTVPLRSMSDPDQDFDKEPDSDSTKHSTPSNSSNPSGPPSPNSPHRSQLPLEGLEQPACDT
Sequence of Cyclin-dependent kinase 9 (Homo sapiens) (P50750 whole entry): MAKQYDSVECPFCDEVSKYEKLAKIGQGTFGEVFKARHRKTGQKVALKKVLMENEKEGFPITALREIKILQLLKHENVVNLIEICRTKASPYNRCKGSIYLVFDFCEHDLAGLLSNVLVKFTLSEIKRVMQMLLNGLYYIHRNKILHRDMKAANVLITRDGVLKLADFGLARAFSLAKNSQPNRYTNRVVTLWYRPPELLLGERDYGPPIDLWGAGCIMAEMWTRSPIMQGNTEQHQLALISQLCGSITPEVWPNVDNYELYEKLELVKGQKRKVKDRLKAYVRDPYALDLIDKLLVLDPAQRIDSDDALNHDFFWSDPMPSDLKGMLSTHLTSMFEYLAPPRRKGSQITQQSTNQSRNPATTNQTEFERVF
Sequence of High affinity nerve growth factor receptor (Homo sapiens) (P04629 33-796 limits assumed): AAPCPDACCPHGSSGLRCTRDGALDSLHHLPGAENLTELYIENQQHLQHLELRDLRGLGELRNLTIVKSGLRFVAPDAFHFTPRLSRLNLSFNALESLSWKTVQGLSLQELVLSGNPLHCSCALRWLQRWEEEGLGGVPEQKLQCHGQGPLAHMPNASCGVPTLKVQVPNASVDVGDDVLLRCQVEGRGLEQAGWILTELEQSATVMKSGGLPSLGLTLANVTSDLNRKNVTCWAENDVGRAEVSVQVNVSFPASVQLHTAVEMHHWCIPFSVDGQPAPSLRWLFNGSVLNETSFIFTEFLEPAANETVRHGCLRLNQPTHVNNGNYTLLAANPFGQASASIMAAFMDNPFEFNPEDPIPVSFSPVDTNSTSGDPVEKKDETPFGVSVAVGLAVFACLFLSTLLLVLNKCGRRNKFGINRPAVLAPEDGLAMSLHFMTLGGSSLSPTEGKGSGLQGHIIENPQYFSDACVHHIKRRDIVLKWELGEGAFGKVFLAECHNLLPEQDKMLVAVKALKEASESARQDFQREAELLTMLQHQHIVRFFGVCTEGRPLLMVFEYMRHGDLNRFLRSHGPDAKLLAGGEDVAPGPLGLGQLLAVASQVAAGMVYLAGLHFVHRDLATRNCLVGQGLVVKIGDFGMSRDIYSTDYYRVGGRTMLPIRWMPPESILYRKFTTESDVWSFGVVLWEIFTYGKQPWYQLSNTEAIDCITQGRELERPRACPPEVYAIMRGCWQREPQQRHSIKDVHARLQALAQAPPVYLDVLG

Q: Which inhibition [1] does the source give for `CNc1cc(Oc2cc(C(=O)Nc3cc(N4CCN(C)CC4)cc(C(F)(F)F)c3)ccc2C)ncn1` here?
A: 11.9%

Q: What about the inhibition [2] of the same compound?
A: 12.4%

Q: And the inhibition [3]?
A: 13%

Q: Which results are given for `CCN1CCN(Cc2ccc(NC(=O)c3ccc(C)c(/C=C/c4cnc5[nH]ccc5c4OC)c3)cc2C(F)(F)F)CC1`?
A: inhibition [4]: 54%; inhibition [5]: 8.4%; residual activity [6]: 0.15%

Q: For `CCN1CCN(Cc2ccc(NC(=O)c3ccc(C)c(Oc4ccnc5[nH]ccc45)c3)cc2C(F)(F)F)CC1`, which inhibition [7] is on record?
A: -4.5%

Q: And the inhibition [8]?
A: 14.5%

Q: What about the inhibition [9] of the same compound?
A: 5.3%
